Where two headings read alike, the source gives them in different places. Where a SMILES comes first, the peptide text is derived from it. Where no end group is shown, it is not given here. [ ]: non-standard residue; d: D form. The star is where a group is joined. Myristoyl = CCCCCCCCCCCCCC(=O)*
Columns and labels:
[1] = tested on: male BKS.Cg-Dock7m+/+Leprdb/J diabetic db/db mice; test: Fasting blood glucose in db/db mice after oral delivery in PBS or 0.3% DDM; assay type: in vivo; settings: oral gavage once daily
Protocol: Studies comparing the effects of oral delivery of myristic acid-conjugated [D-Leu-4]-OB3 in PBS or 0.3% dodecyl maltoside (DDM, Intravail®) on fasting blood glucose in six to seven week-old male BKS.Cg-Dock7^m+/+Lepr^db/J diabetic db/db mice.
Male db/db mice were given increasing concentrations of MA-[D-Leu-4]-OB3 in either PBS or DDM orally by gavage once daily in the evening for 14 consecutive days. Fasting (8 hours) blood glucose levels were measured every other day using an Accu-Chek Nano glucose meter (Roche, Indianapolis, Ind.).

[2] = tested on: STZ-induced hyperglycemic male Swiss Webster mice; test: Fasting blood glucose in STZ-induced hyperglycemic mice; assay type: in vivo
Protocol: (§1) Streptozotocin (STZ)-induced male Swiss Webster mice were used in these studies to examine the effects of MA-[D-Leu-4]-OB3 on body weight gain and insulin sensitivity in an insulin-deficient mouse model of diabetes. Using this model, the insulin sensitizing effects of MA-[D-Leu-4]-OB3 was compared with those of another well-characterized insulin-sensitizing drug, metformin.
(§2) Seven-week old male Swiss Webster mice were rendered hyperglycemic with a single intraperitoneal (ip) dose of 150 mg/kg STZ. Fasting blood glucose levels were measured prior to STZ treatment to establish normal (non-diabetic) glucose levels, and every day thereafter to assess hyperglycemia. Fasting blood glucose levels were routinely 3- to 4-fold higher than normal 4-5 days after STZ treatment.
(§3) Detemir insulin (Levemir®, Novo Nordisk, Malov, Denmark) delivery pens were used to dispense 0.025 U/100 μL phosphate buffered saline (PBS), and delivered by subcutaneous (sc) injection twice daily between 8:00 and 9:00 a.m. and 4:00 and 5:00 p.m. for 14 days. MA-[D-Leu-4]-OB3 (NeoBiolab, Cambridge, Mass.) and metformin (Sigma Aldrich, St. Louis, Mo.) were dissolved in 0.3% dodecyl maltoside (DDM, Intravail®, Aegis Therapeutics, San Diego, Calif.) reconstituted in sterile deionized water, and delivered twice daily by oral gavage between 8:00 h and 9:00 h and 16:00 h and 17:00 h at a concentration of 5 mg/kg/100 μL or 100 mg/kg/100 uL, respectively, for 14 days.
(§4) On day zero and each day thereafter, food and water intake were measured, and the mice were weighed in the morning between 8:00 h and 9:00 h. To assure fasting (8 hour) glucose levels on the days blood glucose was measured, food was removed from the cages between 8:00 h and 9:00 h and replaced immediately after measurement.

[3] = mouse, in vivo
Protocol: (§5) Three to four week-old male Swiss Webster mice weighing between 12 and 15 g were obtained from Charles River Laboratories (Troy, N.Y., USA). The animals were housed three per cage in polycarbonate cages fitted with stainless steel wire lids and air filters, and supported on ventilated racks (Thoren Caging Systems, Hazelton, Pa., USA) in the Albany Medical College Animal Resources Facility. The mice were maintained at a constant temperature (24° C.) with lights on from 07:00 to 19:00 h, and allowed food and water ad libitum until used for uptake studies.
(§6) For oral and intranasal delivery, MA-[D-Leu-4]-OB3 was dissolved in 0.3% Intravail® (Aegis Therapeutics, San Diego, Calif., USA) reconstituted in sterile deionized water at a concentration of 0.1 mg/100 μL and 0.1 mg/10 μL, respectively. At time zero (0), a single 200 μl SC, IM, or IP injection of mouse MA-[D-Leu-4]-OB3 was given to each of three mice per time point. Intranasal delivery was achieved by lightly anesthetizing the mice with isoflurane (1-4%) and delivering 10 μl of MA-[D-Leu-4]OB3 into the nares using a Gilson® P-20 pipettor. Following peptide administration, the mice were transferred to separate cages for the designated time period.
(§7) One, two, four, six, 18, and 24 h after peptide delivery, the mice were anesthetized with isoflurane (5%) and exsanguinated by cardiac puncture. The blood was collected in sterile non-heparinized plastic centrifuge tubes and allowed to stand at room temperature for 1 h. The clotted blood was rimmed from the walls of the tubes with sterile wooden applicator sticks. Individual serum samples were prepared by centrifugation for 30 min at 2600×g in an Eppendorf 5702R, A-4-38 rotor (Eppendorf North America, Westbury, N.Y., USA), pooled by time point, and stored frozen until assayed for MA-[D-Leu-4]OB3 content.
(§8) MA-[D-Leu-4]-OB3 concentrations in the pooled serum samples were measured with a competitive ELISA, developed and validated by the present inventors, with the following modification: MA-[D-Leu-4]-OB3 was used to construct the standard curve. Cross-reactivity of MA-[D-Leu-4]-OB3 with the polyclonal antibody to [D-Leu-4]-OB3 used in the ELISA was 100%. Each serum sample was assayed in duplicate. Intra- and inter-assay coefficients of variation were 0.03% and 0.2%, respectively.
(§9) Serum concentrations of MA-[D-Leu-4]OB3 vs. time following SC, IP, IM, oral, or intranasal delivery were plotted using the graphics program SigmaPlot 8.0 (SPSS Science, Chicago, Ill., USA). The area under each curve (AUC) was calculated with a function of this program, and expressed as ng/ml/min.
(§10) The period of time required for the serum concentration of MA-[D-Leu-4]OB3 to be reduced to exactly one-half of the maximum concentration achieved following IP, SC, IM, oral, and intranasal administration was calculated using the following formula: t1/2=0.693/kelim
(§11) where kelim represents the elimination constant, determined by plotting the natural log of each of the concentration points in the beta phase of the uptake profiles against time.

[4] = mouse, in vivo; remark: listed apart in the source
Protocol: as §5, §6, §7, §8, §9, §10, §11

[5] = Body weight gain, food and water intake in STZ-induced hyperglycemic mice; assay type: in vivo, male Swiss Webster mice
Protocol: as §1, §2, §3, §4

[6] = in vivo, cited from earlier work

In the case of `CCCCCCCCCCCCCC(=O)N[C@@H](CO)C(=O)N[C@@H](CS)C(=O)N[C@@H](CO)C(=O)N[C@H](CC(C)C)C(=O)N1CCC[C@H]1C(=O)N[C@@H](CCC(N)=O)C(=O)N[C@H](C(N)=O)[C@@H](C)O` [MA-[D-Leu-4]-OB3] (Myristoyl-SCS[dL]PQT-NH2), the “fasting blood glucose levels” value ([1]; 100 or 250 mcg/day in 0.3% DDM, 14 days) is reported as “significantly reduced”, the “fasting blood glucose levels” value ([1]; 250 mcg/day in 0.3% DDM, end of 14-day treatment) is reported as “reduced to levels seen in non-diabetic BKS mice” and the “fasting blood glucose levels” value ([1]; 250 or 500 mcg/day in PBS, after 14 days) is reported as “unchanged from those in control mice receiving PBS alone”. The “effect on fasting blood glucose levels” value ([2]; 14 day study, combination: within two days and throughout the study) was “very little effect”, the “blood glucose % of initial” value ([2]; after 14 days) was 98.8% and the “blood glucose Change” value ([2]; after 14 days) was -6 mg/dL. For the same compound, the Initial blood glucose ([2]; baseline, fasting) was 507.0 ± 6.0 mg/dL, the “reduction of fasting blood glucose levels” value ([2]; end of 14-day test period versus beginning) was 1.2% and the Final blood glucose ([2]; fasting, after 14 days twice daily: MA-[D-Leu-4]-OB3 5 mg/kg oral, metformin 100 mg/kg oral, insulin 0.025 U sc) was 501.0 ± 12.3 mg/dL. For the same compound, the “times more effective than metformin in improving insulin sensitivity” value ([2]; on a mass basis, 10 mg/kg/day vs. 200 mg/kg/day) was 20 times, the “times more effective than metformin in improving insulin sensitivity” value ([2]; on a molar basis) was 6.1 times and the half-life ([3]; half-life) was at most 28 h. The AUC ([3]; im, 0.1 mg) was 842 µg·h/mL, the Cmax ([3]; im, 0.1 mg) was 89800 ng/mL and the Tmax ([3]; im, 0.1 mg) was 2 h. It also gave a half-life ([3]; im, 0.1 mg, t1/2) of 5.5 h, an AUC ([3]; inhaled or intranasal, 0.1 mg) of 158 µg·h/mL and a Cmax ([3]; inhaled or intranasal, 0.1 mg) of 10000 ng/mL. It also gave a Tmax ([3]; inhaled or intranasal, 0.1 mg) of 6 h, a half-life ([3]; inhaled or intranasal, 0.1 mg, t1/2) of 8.2 h and an AUC ([3]; ip, 0.1 mg) of 1210 µg·h/mL. For the same compound, the Tmax ([3]; ip, 0.1 mg) was 2 h, the half-life ([3]; ip, 0.1 mg, t1/2) was 4.1 h and the AUC ([3]; po, 0.1 mg) was 278 µg·h/mL. It also gave a Cmax ([3]; po, 0.1 mg) of 14400 ng/mL, a Tmax ([3]; po, 0.1 mg) of 4 h and a half-life ([3]; po, 0.1 mg, t1/2) of 28.9 h. The AUC ([3]; sc, 0.1 mg) was 1830 µg·h/mL, the Tmax ([3]; sc, 0.1 mg) was 2 h and the half-life ([3]; sc, 0.1 mg, t1/2) was 2 h. The period of absorption [4] was 2 to 6 h, the relative bioavailability [4] was 5.3 and the “Plasma CL” value ([4]; im, 0.1 mg) was 0.12 mL/min. The clearance ([4]; im, 0.1 mg) was 0.12 mL/min, the t1/2 ([4]; im, 0.1 mg) was 5.9 h and the “reduction of Cmax” value ([4]; inhaled or intranasal) was 80%. The relative bioavailability ([4]; inhaled or intranasal) was 1.0, the “Plasma CL” value ([4]; inhaled or intranasal, 0.1 mg) was 0.63 mL/min and the Vd ([4]; inhaled or intranasal, 0.1 mg) was 447.0 mL. The clearance ([4]; inhaled or intranasal, 0.1 mg) was 0.63 mL/min, the relative bioavailability ([4]; ip) was 7.7 and the “Clearance from the plasma” value ([4]; ip, 0.1 mg) was 0.08 mL/min. The Vd ([4]; ip, 0.1 mg) was 30.9 mL, the clearance ([4]; ip, 0.1 mg) was 0.0798 mL/min and the t1/2 ([4]; ip, 0.1 mg) was 4.5 h. For the same compound, the “reduction of Cmax” value ([4]; po) was 31%, the relative bioavailability ([4]; po) was 1.8 and the “Plasma CL” value ([4]; po, 0.1 mg) was 0.36 mL/min. The Vd ([4]; po, 0.1 mg) was 900.8 mL, the clearance ([4]; po, 0.1 mg) was 0.36 mL/min and the relative bioavailability ([4]; sc) was 11.7. The “Plasma CL” value ([4]; sc, 0.1 mg) was 0.05 mL/min, the Vd ([4]; sc, 0.1 mg) was 8.6 mL and the clearance ([4]; sc, 0.1 mg) was 0.05 mL/min. The “heavier at the end of the 14-day test period (body weight gain)” value [5] was 8.1%, the Cumulative food intake ([5]; 14 days) was 103.3 ± 2.3 gm/mouse and the Cumulative water intake ([5]; 14 days) was 452.5 ± 6.4 mL/mouse. The “body weight % of initial” value ([5]; after 14 days) was 108.1%, the “body weight Change” value ([5]; after 14 days) was “+2.0 gm” and the Final body weight ([5]; after 14 days twice daily: MA-[D-Leu-4]-OB3 5 mg/kg oral, metformin 100 mg/kg oral, insulin 0.025 U sc) was 26.8 ± 1.6 gm. For the same compound, the Initial body weight ([5]; baseline, STZ mice) was 24.8 ± 1.4 gm.

For “[D-Leu-4]-OB3: synthetic peptide amide with leptin-like activity that has the sequence SCSLPQT (SEQ ID NO:1); non-myristoylated comparator (SCS[dL]PQT-NH2)”, the AUC ([6]; im, 1 mg) is given as 1,481,060 ng/ml/min, the Cmax ([6]; im, 1 mg) is given as 46,566 ng/ml and the “Plasma CL” value ([6]; im, 1 mg) is given as 0.68 mL/min. The Tmax ([6]; im, 1 mg) was 0.083 h, the Vd ([6]; im, 1 mg) was 29.4 mL and the t1/2 ([6]; im, 1 mg) was 0.6 h. The AUC ([6]; inhaled or intranasal, 1 mg) was 4,336,963 ng/ml/min, the “Plasma CL” value ([6]; inhaled or intranasal, 1 mg) was 1.37 mL/min and the Vd ([6]; inhaled or intranasal, 1 mg) was 15.4 mL. The t1/2 ([6]; inhaled or intranasal, 1 mg) was 0.683 h, the AUC ([6]; ip, 1 mg) was 1,072,270 ng/ml/min and the Cmax ([6]; ip, 1 mg) was 22,519 ng/ml. For the same compound, the Tmax ([6]; ip, 1 mg) was 0.083 h, the Vd ([6]; ip, 1 mg) was 65.5 mL and the clearance ([6]; ip, 1 mg) was 0.93 mL/min. The t1/2 ([6]; ip, 1 mg) was 0.817 h, the AUC ([6]; po, 1 mg) was 552,710 ng/ml/min and the Cmax ([6]; po, 1 mg) was 8,574 ng/ml. For the same compound, the “Plasma CL” value ([6]; po, 1 mg) was 1.81 mL/min, the Tmax ([6]; po, 1 mg) was 0.833 h and the Vd ([6]; po, 1 mg) was 47.9 mL. For the same compound, the t1/2 ([6]; po, 1 mg) was 0.333 h, the AUC ([6]; sc, 1 mg) was 1,182,498 ng/ml/min and the Cmax ([6]; sc, 1 mg) was 35,063 ng/ml. The “Plasma CL” value ([6]; sc, 1 mg) was 0.85 mL/min, the Tmax ([6]; sc, 1 mg) was 0.083 h and the Vd ([6]; sc, 1 mg) was 42.9 mL. The t1/2 ([6]; sc, 1 mg) was 0.567 h and the period of absorption [6] was 5 to 60 min.

Source: US10195254B2, “Myristoylated leptin-related peptides and uses thereof” (ALBANY MEDICAL COLLEGE, priority 2014, dated 2019)
